Source: patent US8722849B2, “Polypeptides” (Novo Nordisk A/S, priority 2011, dated 2014)
≈ marks a conversion by molar mass, not a printed value. Read-outs that look alike come from different tables or passages of the source. Starred links: 1 amine or outer side, 2 acyl side, 3 side chain; linkers in the order of their positions; H or OH if unused. Positions of bridges follow the written chain, without caps; N, C: chain ends. Residues, ends and D or L forms follow the SMILES beside them. *: point of attachment. C20 diacid = O=C(O)CCCCCCCCCCCCCCCCCCC(=O)*; γGlu = O=C(O)[C@H](CCC(=O)[*:2])N[*:1]

Key:
[1] = biological target: T1, human amylin receptor (amylin 3(a) receptor: human calcitonin receptor + RAMP-3) (Homo sapiens, UniProt O60896+P30988); experiment: Assay (II)a functional CRE-luciferase assay, human amylin receptor; format: cell-based; conditions: Table 2; BHK amylin 3(a)-receptor/CRE-luc cells
T1 construct: expressed in transfected cells; host or cells: BHK570
T1 sequence (P30988 25-474): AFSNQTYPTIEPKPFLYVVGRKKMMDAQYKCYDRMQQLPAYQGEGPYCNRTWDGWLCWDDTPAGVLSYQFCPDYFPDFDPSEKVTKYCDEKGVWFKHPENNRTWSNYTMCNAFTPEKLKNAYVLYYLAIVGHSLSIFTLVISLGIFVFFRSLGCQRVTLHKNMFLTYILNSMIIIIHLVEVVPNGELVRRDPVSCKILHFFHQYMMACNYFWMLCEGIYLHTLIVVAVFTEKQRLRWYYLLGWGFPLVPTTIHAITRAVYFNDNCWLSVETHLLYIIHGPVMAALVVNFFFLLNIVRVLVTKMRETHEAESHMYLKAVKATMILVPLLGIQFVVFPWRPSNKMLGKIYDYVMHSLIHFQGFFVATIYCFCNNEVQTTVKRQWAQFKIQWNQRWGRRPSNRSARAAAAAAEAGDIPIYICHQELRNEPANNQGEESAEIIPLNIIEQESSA
T1 sequence (O60896 24-148 partner): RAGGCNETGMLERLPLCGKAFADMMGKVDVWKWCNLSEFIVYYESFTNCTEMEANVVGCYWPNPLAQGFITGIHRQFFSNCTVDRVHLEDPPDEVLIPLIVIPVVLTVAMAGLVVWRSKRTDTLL

[2] = biological target: T2, human calcitonin receptor (Homo sapiens, UniProt P30988); experiment: Assay (II)a functional CRE-luciferase assay, human calcitonin receptor; format: cell-based; conditions: Table 7; human calcitonin (CTa) receptor
T2 construct: expressed in transfected cells; host or cells: BHK570
T2 sequence (P30988 25-474): T1 sequence (P30988 25-474)

[3] = Assay (III) ThT fibrillation assay for physical stability; format: physicochemical; conditions: ThT fibrillation assay
Method in brief: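 Freshly prepared formulations, pH-adjusted, with 1 μM ThT; four or eight replicates incubated at 37 °C under 960 rpm orbital shaking. Fluorescence (ex 444/em 485 nm) read every 20 min; […]. Peptide concentration measured by RP-HPLC before and after the run.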

[4] = Assay (IV) determination of solubility; format: physicochemical
Method in brief: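 Solubility was profiled across pH 3.0–8.0 after 18 hours at room temperature: a ~500 nmol/ml aqueous polypeptide solution was diluted 1:1 into 100 mM glycylglycine or bistrispropane buffers. After centrifugation, HPLC gave the dissolved concentration.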

[5] = bistrispropane buffer, pH 6, pH 6.0, read-out: Solubility pH 6.0
[6] = bistrispropane buffer, pH 6.5, pH 6.5, read-out: Solubility pH 6.5
[7] = bistrispropane buffer, pH 7, pH 7.0, read-out: Solubility pH 7.0
[8] = bistrispropane buffer, pH 7.5, pH 7.5, read-out: Solubility pH 7.5
[9] = bistrispropane buffer, pH 8, pH 8.0, read-out: Solubility pH 8.0
[10] = glycylglycine buffer, pH 3, pH 3.0, read-out: Solubility pH 3.0
[11] = glycylglycine buffer, pH 4, pH 4.0, 18 hours at room temperature, Table 2, read-out: Solubility pH 4.0
[12] = glycylglycine buffer, pH 4, pH 4.0, read-out: Solubility pH 4.0
[13] = glycylglycine buffer, pH 5, pH 5.0, read-out: Solubility pH 5.0

| EC50 [1] [nM] | EC50 [2] [nM] | ThT pH 4.0 lag time [3] [h] | ThT pH 4.0 lag time (h) [3] [h] | solubility at 18 h [4, 5] [µM] | solubility at 18 h [4, 6] [µM] | solubility at 18 h [4, 7] [µM] | solubility at 18 h [4, 8] [µM] | solubility at 18 h [4, 9] [µM] | solubility at 18 h [4, 10] [µM] | solubility at 18 h [4, 11] [µM] | solubility at 18 h [4, 12] [µM] | solubility at 18 h [4, 13] [µM] | Structure (SMILES) |
| --- | --- | --- | --- | --- | --- | --- | --- | --- | --- | --- | --- | --- | --- |
| 0.129 | 0.115 | >45 | >45 | > 200 | 73 (≈ 329 µg/mL) | 22 (≈ 99.1 µg/mL) | 46 (≈ 207 µg/mL) | 115 (≈ 518 µg/mL) | > 200 | > 200 | > 200 | > 200 | CC[C@H](C)[C@H](NC(=O)[C@@H]1CCCN1C(=O)CNC(=O)[C@H](Cc1ccccc1)NC(=O)[C@H](CC(N)=O)NC(=O)[C@H](CC(N)=O)NC(=O)[C@H](CO)NC(=O)[C@H](CO)NC(=O)[C@H](Cc1c[nH]cn1)NC(=O)[C@H](Cc1c[nH]cn1)NC(=O)[C@H](CC(C)C)NC(=O)[C@H](Cc1ccccc1)NC(=O)[C@H](CCC(=O)O)NC(=O)[C@H](C)NC(=O)[C@H](CC(C)C)NC(=O)[C@H](CCCNC(=N)N)NC(=O)[C@H](CCC(N)=O)NC(=O)[C@@H](NC(=O)[C@H](C)NC(=O)[C@@H]1CSSC[C@H](NC(=O)[C@H](CCCCN)NC(=O)CC[C@H](NC(=O)CCCCCCCCCCCCCCCCCCC(=O)O)C(=O)O)C(=O)N[C@@H](CC(N)=O)C(=O)N[C@@H]([C@@H](C)O)C(=O)N[C@@H](C)C(=O)N[C@@H]([C@@H](C)O)C(=O)N1)[C@@H](C)O)C(=O)N[C@@H](CC(C)C)C(=O)N1CCC[C@H]1C(=O)N1CCC[C@H]1C(=O)N[C@H](C(=O)N[C@@H](CC(N)=O)C(=O)N[C@H](C(=O)NCC(=O)N[C@@H](Cc1c[nH]cn1)C(=O)N[C@@H](CC(N)=O)C(=O)N[C@H](C(=O)N[C@@H](Cc1ccc(O)cc1)C(N)=O)[C@@H](C)O)C(C)C)[C@@H](C)O [Example 115, N-alpha-[(S)-4-Carboxy-4-(19-carboxynonadecanoylamino)butyryl]-[Glu14,His17,His34]-pramlintide] ({C20 diacid-γGlu}-KCNTATCATQRLAEFLHHSSNNFGPILPPTNVGHNTY-NH2; disulfide 2-7 (inferred); C-terminus assumed) |
| 0.487 | 0.124 | >45 | >45 | > 200 | 120 (≈ 539 µg/mL) | 44 (≈ 198 µg/mL) | 79 (≈ 355 µg/mL) | 173 (≈ 777 µg/mL) | > 200 | > 200 | > 200 | > 200 | CC[C@H](C)[C@H](NC(=O)[C@@H]1CCCN1C(=O)CNC(=O)[C@H](Cc1ccccc1)NC(=O)[C@H](CC(N)=O)NC(=O)[C@H](CC(N)=O)NC(=O)[C@H](CO)NC(=O)[C@H](CO)NC(=O)[C@H](Cc1c[nH]cn1)NC(=O)[C@H](Cc1c[nH]cn1)NC(=O)[C@H](CC(C)C)NC(=O)[C@H](Cc1ccccc1)NC(=O)[C@H](CCC(=O)O)NC(=O)[C@H](C)NC(=O)[C@H](CC(C)C)NC(=O)[C@H](CCCNC(=N)N)NC(=O)[C@H](CCC(N)=O)NC(=O)[C@@H](NC(=O)[C@H](C)NC(=O)[C@@H]1CSSC[C@H](NC(=O)[C@H](CCCCN)NC(=O)CC[C@H](NC(=O)CCCCCCCCCCCCCCCCCCC(=O)O)C(=O)O)C(=O)N[C@@H](CC(N)=O)C(=O)N[C@@H]([C@@H](C)O)C(=O)N[C@@H](C)C(=O)N[C@@H]([C@@H](C)O)C(=O)N1)[C@@H](C)O)C(=O)N[C@@H](CC(C)C)C(=O)N1CCC[C@H]1C(=O)N1CCC[C@H]1C(=O)N[C@H](C(=O)N[C@@H](CC(N)=O)C(=O)N[C@@H](Cc1c[nH]cn1)C(=O)NCC(=O)N[C@@H](CO)C(=O)N[C@@H](CC(N)=O)C(=O)N[C@H](C(=O)N[C@@H](Cc1ccc(O)cc1)C(N)=O)[C@@H](C)O)[C@@H](C)O [Example 116, N-alpha-[(S)-4-Carboxy-4-(19-carboxynonadecanoylamino)butyryl]-[Glu14,His17,His32]-pramlintide] ({C20 diacid-γGlu}-KCNTATCATQRLAEFLHHSSNNFGPILPPTNHGSNTY-NH2; disulfide 2-7 (inferred); C-terminus assumed) |
